Test results as given in ChEMBL document CHEMBL2057073, “Synthesis and structure-activity relationship studies of 1,3-disubstituted 2-propanols as BACE-1 inhibitors” (Bioorg Med Chem Lett, 2012).

Tests used:
[1] = molecular target: T1, Beta-secretase 1 (Homo sapiens, UniProt P56817); test: Inhibition of BACE1 at 100 uM by FRET assay
[2] = molecular target: T1, Beta-secretase 1; test: Inhibition of BACE1 at 50 uM by FRET assay
[3] = molecular target: T1, Beta-secretase 1; test: Inhibition of BACE1 at 25 uM by FRET assay

T1 sequence (P56817 whole entry): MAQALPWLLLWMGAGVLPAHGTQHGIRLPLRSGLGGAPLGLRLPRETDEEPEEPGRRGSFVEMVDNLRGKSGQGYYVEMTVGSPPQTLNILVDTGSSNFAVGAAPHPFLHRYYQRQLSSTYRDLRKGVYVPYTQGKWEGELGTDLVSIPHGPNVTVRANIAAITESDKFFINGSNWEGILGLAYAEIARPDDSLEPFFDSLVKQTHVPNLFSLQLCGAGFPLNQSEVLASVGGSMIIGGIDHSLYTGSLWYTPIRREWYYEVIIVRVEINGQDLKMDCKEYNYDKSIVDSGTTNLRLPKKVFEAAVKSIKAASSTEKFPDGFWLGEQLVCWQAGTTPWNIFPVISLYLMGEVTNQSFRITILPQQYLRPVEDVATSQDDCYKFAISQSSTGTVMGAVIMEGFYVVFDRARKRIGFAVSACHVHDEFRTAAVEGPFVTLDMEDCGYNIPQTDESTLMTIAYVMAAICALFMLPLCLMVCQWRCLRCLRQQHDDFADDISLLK

inhibition [1] [%]	inhibition [2] [%]	inhibition [3] [%]	SMILES
20	–	–	COc1ccc(SCC(O)CN2CCc3cc(OC)c(OC)cc3C2c2ccccc2)cc1 (stereo unspecified)
48	–	–	COc1ccc(SCC(O)COc2ccc(Cc3ccccc3)cc2)cc1 (stereo unspecified)
83	54	11	CCc1cccc2ccn(CC(O)CSc3ccc(OC)cc3)c12 (stereo unspecified)
0	–	–	OC(CSc1ccc(Cl)cc1)CN1CCCCCC1 (stereo unspecified)
76	65	45	Cc1ccc(SCC(O)Cn2c(-c3ccccc3)cc3ccccc32)cc1 (stereo unspecified)
69	–	–	Cc1c(C)n(CC(O)CSc2ccccc2)c2ccccc12 (stereo unspecified)
75	–	–	Cc1c(C)n(CC(O)CSc2ccc(O)cc2)c2ccccc12 (stereo unspecified)
17	–	–	Oc1ccc(SCC(O)COc2ccc(-c3ccccc3)cc2)cc1 (stereo unspecified)
0	–	–	OC(CSc1nnnn1-c1ccccc1)CN(Cc1ccccc1)Cc1ccccc1 (stereo unspecified)
3	–	–	CCc1ccccc1SCC(O)CN1CCC(C(O)(c2ccccc2)c2ccccc2)CC1 (stereo unspecified)
84	101	90	Oc1ccccc1SCC(O)COc1ccc(Cc2ccccc2)cc1 (stereo unspecified)
71	–	–	OC(COc1ccc(-c2ccccc2)cc1)CSc1nnnn1-c1ccccc1 (stereo unspecified)
24	–	–	COc1ccc(SCC(O)CN2CCc3cc(OC)c(OC)cc3C2c2ccccc2)c(OC)c1 (stereo unspecified)
21	–	–	CCc1ccc(SCC(O)CN2CCc3cc(OC)c(OC)cc3C2c2ccccc2)cc1 (stereo unspecified)
27	–	–	Cc1ccc(SCC(O)COc2ccc(-c3ccccc3)cc2)cc1 (stereo unspecified)
1	–	–	OC(CSc1ccccc1F)CN(Cc1ccccc1)Cc1ccccc1 (stereo unspecified)
10	–	–	COc1ccc(SCC(O)CN(Cc2ccccc2)Cc2ccccc2)cc1 (stereo unspecified)
85	64	35	OC(CSc1ccccc1)Cn1c2c(c3ccccc31)CCC2 (stereo unspecified)
1	–	–	OC(CSc1nnnn1-c1ccccc1)CN1CCC(C(O)(c2ccccc2)c2ccccc2)CC1 (stereo unspecified)
8	–	–	OC(CSc1ccccc1F)CN1CCC(C(O)(c2ccccc2)c2ccccc2)CC1 (stereo unspecified)
77	42	21	COc1ccc(SCC(O)Cn2c(-c3ccccc3)cc3ccccc32)c(OC)c1 (stereo unspecified)
90	71	40	CCc1cccc2ccn(CC(O)CSc3cc(C)cc(C)c3)c12 (stereo unspecified)
0	–	–	COc1ccc(SCC(O)CN2CCC(C(O)(c3ccccc3)c3ccccc3)CC2)cc1 (stereo unspecified)
91	81	55	Cc1ccc(SCC(O)Cn2c3c(c4ccccc42)CCC3)cc1 (stereo unspecified)
3	–	–	COc1cc2c(cc1OC)C(c1ccccc1)N(CC(O)CSc1ccc(Cl)cc1)CC2 (stereo unspecified)
34	–	–	COc1ccc(SCC(O)CN(Cc2ccccc2)Cc2ccccc2)c(OC)c1 (stereo unspecified)

inhibition [1] [%]	inhibition [2] [%]	inhibition [3] [%]	SMILES
0	–	–	OC(CSc1ccc2ccccc2c1)CN1CCCCCC1 (stereo unspecified)
82	69	56	OC(CSc1ccc(Cl)cc1)Cn1c(-c2ccccc2)cc2ccccc21 (stereo unspecified)
16	–	–	OC(CSCCCc1ccccc1)CN(Cc1ccccc1)Cc1ccccc1 (stereo unspecified)
71	–	–	Cc1cc(C)cc(SCC(O)COc2ccc(Cc3ccccc3)cc2)c1 (stereo unspecified)
67	–	–	Cc1ccccc1SCC(O)Cn1c(-c2ccccc2)cc2ccccc21 (stereo unspecified)
5	–	–	Cc1ccccc1SCC(O)CN1CCC(C(O)(c2ccccc2)c2ccccc2)CC1 (stereo unspecified)
33	–	–	Oc1ccccc1SCC(O)COc1ccc(-c2ccccc2)cc1 (stereo unspecified)
70	–	–	COc1ccc(SCC(O)Cn2c(-c3ccccc3)cc3ccccc32)cc1 (stereo unspecified)
87	92	56	OC(CSc1ccc(F)cc1)Cn1c2c(c3ccccc31)CCCC2 (stereo unspecified)
88	72	37	COc1ccc(SCC(O)Cn2c3ccccc3c3ccccc32)cc1 (stereo unspecified)
2	–	–	OC(CSc1ccccc1)CN1CCCCCC1 (stereo unspecified)
74	–	–	COc1ccc(SCC(O)COc2ccc(-c3ccccc3)cc2)c(OC)c1 (stereo unspecified)
62	–	–	OC(COc1ccc(Cc2ccccc2)cc1)CSc1nnnn1-c1ccccc1 (stereo unspecified)
2	–	–	Oc1ccccc1SCC(O)CN(Cc1ccccc1)Cc1ccccc1 (stereo unspecified)
32	–	–	CCc1cccc2ccn(CC(O)CSc3ccccc3O)c12 (stereo unspecified)
0	–	–	OC(CSc1ccc2ccccc2c1)CN1CCC(C(O)(c2ccccc2)c2ccccc2)CC1 (stereo unspecified)
79	78	42	CCc1ccc(SCC(O)Cn2c(-c3ccccc3)cc3ccccc32)cc1 (stereo unspecified)
64	–	–	OC(CSc1nnnn1-c1ccccc1)Cn1c2ccccc2c2ccccc21 (stereo unspecified)
0	–	–	CCc1cccc2ccn(CC(O)CSCCCc3ccccc3)c12 (stereo unspecified)
24	–	–	OC(CSc1ccc(Cl)cc1)CN(Cc1ccccc1)Cc1ccccc1 (stereo unspecified)
67	–	–	COc1ccc(SCC(O)COc2ccc(Cc3ccccc3)cc2)c(OC)c1 (stereo unspecified)
15	–	–	COc1cc2c(cc1OC)C(c1ccccc1)N(CC(O)CSc1ccc(F)cc1)CC2 (stereo unspecified)
87	76	37	OC(CSc1nnnn1-c1ccccc1)Cn1c2c(c3ccccc31)CCC2 (stereo unspecified)
10	–	–	OC(CSc1ccc(Cl)cc1)CN1CCC(C(O)(c2ccccc2)c2ccccc2)CC1 (stereo unspecified)
64	–	–	OC(COc1ccc(Cc2ccccc2)cc1)CSc1ccccc1F (stereo unspecified)
92	61	38	CCc1ccc(SCC(O)Cn2ccc3cccc(CC)c32)cc1 (stereo unspecified)

inhibition [1] [%]	inhibition [2] [%]	inhibition [3] [%]	SMILES
10	–	–	OC(CSc1ccc(F)cc1)CN1CCCCCC1 (stereo unspecified)
96	70	26	COc1ccc(SCC(O)Cn2c(C)c(C)c3ccccc32)cc1 (stereo unspecified)
53	–	–	OC(CSc1nnnn1-c1ccccc1)Cn1c(-c2ccccc2)cc2ccccc21 (stereo unspecified)
11	–	–	COc1cc2c(cc1OC)C(c1ccccc1)N(CC(O)CSc1ccc(C)cc1)CC2 (stereo unspecified)
45	–	–	COc1ccc(SCC(O)COc2ccc(-c3ccccc3)cc2)cc1 (stereo unspecified)
5	–	–	OC(CSc1ccccc1Cl)CN1CCC(C(O)(c2ccccc2)c2ccccc2)CC1 (stereo unspecified)
87	80	43	OC(CSc1ccc2ccccc2c1)Cn1c2c(c3ccccc31)CCC2 (stereo unspecified)
19	–	–	OC(CSc1ccc2ccccc2c1)CN(Cc1ccccc1)Cc1ccccc1 (stereo unspecified)
74	–	–	Cc1ccccc1SCC(O)COc1ccc(-c2ccccc2)cc1 (stereo unspecified)
86	41	48	CCc1cccc2ccn(CC(O)CSc3ccc(F)cc3)c12 (stereo unspecified)
3	–	–	Oc1ccccc1SCC(O)CN1CCC(C(O)(c2ccccc2)c2ccccc2)CC1 (stereo unspecified)
55	–	–	Cc1c(C)n(CC(O)CSc2cccc(N)c2)c2ccccc12 (stereo unspecified)
100	93	68	Cc1c(C)n(CC(O)CSc2ccccc2Cl)c2ccccc12 (stereo unspecified)
72	–	–	CCc1ccc(SCC(O)Cn2ccc3ccccc32)cc1 (stereo unspecified)
45	–	–	COc1cc2c(cc1OC)C(c1ccccc1)N(CC(O)CSc1nnnn1-c1ccccc1)CC2 (stereo unspecified)
63	–	–	OC(COc1ccc(Cc2ccccc2)cc1)CSc1ccc(Cl)cc1 (stereo unspecified)
1	–	–	CCc1ccc(SCC(O)CN2CCC(C(O)(c3ccccc3)c3ccccc3)CC2)cc1 (stereo unspecified)
87	–	–	Cc1c(C)n(CC(O)CSc2ccc3ccccc3c2)c2ccccc12 (stereo unspecified)
0	–	–	OC(CSc1nnnn1-c1ccccc1)CN1CCCCCC1 (stereo unspecified)
74	–	–	COc1ccc(SCC(O)Cn2c3c(c4ccccc42)CCCC3)c(OC)c1 (stereo unspecified)
1	–	–	CCc1ccccc1SCC(O)CN1CCc2cc(OC)c(OC)cc2C1c1ccccc1 (stereo unspecified)
93	64	31	Cc1c(C)n(CC(O)CSc2nnnn2-c2ccccc2)c2ccccc12 (stereo unspecified)
54	–	–	OC(CSc1ccc(F)cc1)Cn1ccc2ccccc21 (stereo unspecified)
69	–	–	CCc1cccc2ccn(CC(O)CSc3ccc(OC)cc3OC)c12 (stereo unspecified)
56	–	–	Cc1c(C)n(CC(O)CSc2ccccc2F)c2ccccc12 (stereo unspecified)
15	–	–	Cc1cc(C)cc(SCC(O)CN2CCCCCC2)c1 (stereo unspecified)

inhibition [1] [%]	inhibition [2] [%]	inhibition [3] [%]	SMILES
0	–	–	Cc1cc(C)cc(SCC(O)CN2CCC(C(O)(c3ccccc3)c3ccccc3)CC2)c1 (stereo unspecified)
15	–	–	COc1cc2c(cc1OC)C(c1ccccc1)N(CC(O)CSc1cc(C)cc(C)c1)CC2 (stereo unspecified)
69	–	–	CCc1ccc(SCC(O)COc2ccc(Cc3ccccc3)cc2)cc1 (stereo unspecified)
75	–	–	COc1ccc(SCC(O)Cn2c3c(c4ccccc42)CCC3)c(OC)c1 (stereo unspecified)
1	–	–	Cc1ccc(SCC(O)CN2CCC(C(O)(c3ccccc3)c3ccccc3)CC2)cc1 (stereo unspecified)
80	69	22	COc1ccc(SCC(O)Cn2c3ccccc3c3ccccc32)c(OC)c1 (stereo unspecified)
58	–	–	OC(CSc1nnnn1-c1ccccc1)Cn1ccc2ccccc21 (stereo unspecified)
71	–	–	CCc1ccccc1SCC(O)COc1ccc(Cc2ccccc2)cc1 (stereo unspecified)
61	–	–	Cc1c(C)n(CC(O)CSc2ccccc2O)c2ccccc12 (stereo unspecified)
38	–	–	Cc1cc(C)cc(SCC(O)CN(Cc2ccccc2)Cc2ccccc2)c1 (stereo unspecified)
86	46	–	CCc1cccc2ccn(CC(O)CSc3nnnn3-c3ccccc3)c12 (stereo unspecified)
24	–	–	COc1cc2c(cc1OC)C(c1ccccc1)N(CC(O)CSc1ccccc1C)CC2 (stereo unspecified)
0	–	–	Oc1ccc(SCC(O)CN2CCC(C(O)(c3ccccc3)c3ccccc3)CC2)cc1 (stereo unspecified)
7	–	–	Cc1ccc(SCC(O)CN(Cc2ccccc2)Cc2ccccc2)cc1 (stereo unspecified)
0	–	–	OC(CSc1ccccc1)CN(Cc1ccccc1)Cc1ccccc1 (stereo unspecified)
73	–	–	Nc1cccc(SCC(O)Cn2c(-c3ccccc3)cc3ccccc32)c1 (stereo unspecified)
54	–	–	CCc1ccccc1SCC(O)CN(Cc1ccccc1)Cc1ccccc1 (stereo unspecified)
62	–	–	OC(COc1ccc(Cc2ccccc2)cc1)CSc1ccc(F)cc1 (stereo unspecified)
0	–	–	COc1ccc(SCC(O)CN2CCC(C(O)(c3ccccc3)c3ccccc3)CC2)c(OC)c1 (stereo unspecified)
45	–	–	OC(CSc1ccccc1Cl)CN(Cc1ccccc1)Cc1ccccc1 (stereo unspecified)
2	–	–	OC(CSc1ccc(F)cc1)CN(Cc1ccccc1)Cc1ccccc1 (stereo unspecified)
23	–	–	COc1cc2c(cc1OC)C(c1ccccc1)N(CC(O)CSc1ccccc1F)CC2 (stereo unspecified)
24	–	–	Oc1ccccc1SCC(O)Cn1ccc2ccccc21 (stereo unspecified)
2	–	–	OC(CSc1ccccc1)CN1CCC(C(O)(c2ccccc2)c2ccccc2)CC1 (stereo unspecified)
